Where a SMILES comes first, the peptide text is derived from it. Bridges are numbered along the chain shown (N, C = ends). [ ]: non-standard residue; d: D form. The star is where a group is joined. hPhe(3-Cl-4-CF3) = N[C@@H](CCc1ccc(C(F)(F)F)c(Cl)c1)C(=O)O; NPrPhe(4-CF3) = CCCN[C@@H](Cc1ccc(C(F)(F)F)cc1)C(=O)O; NMeGly(cPent) = CN[C@H](C(=O)O)C1CCCC1; NMeD = CN[C@@H](CC(=O)O)C(=O)O; NMeL = CN[C@@H](CC(C)C)C(=O)O; Morpholide = C1CN(*)CCO1; Ac5c = NC1(C(=O)O)CCCC1; Sar = CNCC(=O)O
What was measured:
[1] = molecular target: GDP-bound HRAS wild-type protein (Homo sapiens, UniProt P01112); assay: Binding to HRAS by surface plasmon resonance (SPR), Single Cycle Kinetics; conditions: ratio of KD for GDP-bound HRAS wild-type protein to KD for KRAS, SPR
Chain of GDP-bound HRAS wild-type protein (P01112 whole entry): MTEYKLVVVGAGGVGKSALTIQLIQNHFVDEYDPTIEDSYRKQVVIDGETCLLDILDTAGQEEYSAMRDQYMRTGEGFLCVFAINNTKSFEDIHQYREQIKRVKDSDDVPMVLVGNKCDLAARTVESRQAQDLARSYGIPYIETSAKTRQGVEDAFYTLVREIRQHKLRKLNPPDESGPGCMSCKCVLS

[2] = test system: human lung cancer strain NCI-H441; assay: cells; conditions: NCI-H441, 96 h, read-out: NCI-H441 IC50 (nM), NCI-H441 cell proliferation, 4 days, CellTiter-Glo;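 further: cell proliferation inhibition after four days measured by CellTiter-Glo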
[3] = molecular target: GDP-bound NRAS wild-type protein (Homo sapiens, UniProt P01111); assay: Binding to NRAS by surface plasmon resonance (SPR), Single Cycle Kinetics; conditions: ratio of KD for GDP-bound NRAS wild-type protein to KD for KRAS, SPR
Chain of GDP-bound NRAS wild-type protein (P01111 whole entry): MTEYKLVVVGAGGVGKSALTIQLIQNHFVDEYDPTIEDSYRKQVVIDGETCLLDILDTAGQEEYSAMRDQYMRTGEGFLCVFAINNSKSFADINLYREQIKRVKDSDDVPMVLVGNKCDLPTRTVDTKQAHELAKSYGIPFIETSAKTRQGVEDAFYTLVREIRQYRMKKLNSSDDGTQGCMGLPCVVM

| IC50 [2] | SMILES | HRAS/KRAS (KD ratio) [1] | NRAS/KRAS (KD ratio) [3] |
| --- | --- | --- | --- |
| 95.2 nM | CCO[C@@H]1C[C@H]2C(=O)NC3(CCC3)C(=O)N(C)[C@@H](C(CC)CC)C(=O)N(C)[C@H](C3CCC3)CC(=O)N(C)[C@@H](CC3CC3)C(=O)N[C@@H]([C@@H](C)CC)C(=O)N(C)CC(=O)N(C)[C@H]3C/C=C\CCN(C3=O)[C@@H](Cc3ccc(C(F)(F)F)cc3)C(=O)N(C)CC(=O)N[C@@H](CCc3cc(F)c(C(F)(F)F)c(F)c3)C(=O)N2C1 [PP1636] | A (a compound having 10 or more and less than 20 is denoted as A) | A (a compound having 10 or more and less than 20 is denoted as A) |
| 2.5 nM | CCCN(C)C(=O)[C@@H]1CC(=O)N(C)[C@@H](CC)C(=O)N[C@@H]([C@@H](C)CC)C(=O)N(C)CC(=O)N(C)[C@H]2C/C=C\CCN(C2=O)[C@@H](Cc2ccc(C(F)(F)F)cc2)C(=O)N(C)CC(=O)N[C@@H](CCc2ccc(C(F)(F)F)c(OC)c2)C(=O)N2C[C@H](OCC)C[C@H]2C(=O)NC2(CC(C)(C)C2)C(=O)N(C)[C@@H](C2CCCC2)C(=O)N1C [PP1654] | A (a compound having 10 or more and less than 20 is denoted as A) | A (a compound having 10 or more and less than 20 is denoted as A) |
| 2 nM | CCO[C@@H]1C[C@H]2C(=O)NC3(CCC3)C(=O)N(C)[C@@H](C3CCCC3)C(=O)N(C)[C@H](C(=O)N(C)CC)CC(=O)N(C)[C@@H](CC3CCC3)C(=O)N[C@@H]([C@@H](C)CC)C(=O)N(C)CC(=O)N(C)[C@H]3C/C=C\CCN(C3=O)[C@@H](Cc3ccc(C(F)(F)F)cc3)C(=O)N(C)CC(=O)N[C@@H](CCc3cc(F)c(C(F)(F)F)c(F)c3)C(=O)N2C1 [PP1667] | A (a compound having 10 or more and less than 20 is denoted as A) | A (a compound having 10 or more and less than 20 is denoted as A) |
| 1.1 nM | CCCC[C@H]1C(=O)N[C@@H]([C@@H](C)CC)C(=O)N(C)CC(=O)N(C)[C@H]2C/C=C\CCN(C2=O)[C@@H](Cc2ccc(C(F)(F)F)cc2)C(=O)N(C)CC(=O)N[C@@H](CCc2cc(F)c(C(F)(F)F)c(F)c2)C(=O)N2C[C@H](F)C[C@H]2C(=O)NC2(CC(C)(C)C2)C(=O)N(C)[C@@H](C2CCCC2)C(=O)N(C)[C@H](C(=O)N(C)C)CC(=O)N1C [PP1693] | A (a compound having 10 or more and less than 20 is denoted as A) | AA (a compound having 20 or more is denoted as AA) |
| 3.7 nM | CCO[C@@H]1C[C@H]2C(=O)NC3(CCC3)C(=O)N(C)[C@@H](C3CCCC3)C(=O)N(C)[C@H](C(=O)N(C)CC)CC(=O)N(C)[C@@H](CC(F)(F)F)C(=O)N[C@@H]([C@@H](C)CC)C(=O)N(C)CC(=O)N(C)[C@H]3C/C=C\CCN(C3=O)[C@@H](Cc3ccc(C(F)(F)F)cc3)C(=O)N(C)CC(=O)N[C@@H](CCc3cc(F)c(C(F)(F)F)c(F)c3)C(=O)N2C1 [PP1701] | A (a compound having 10 or more and less than 20 is denoted as A) | A (a compound having 10 or more and less than 20 is denoted as A) |
| 6.7 nM | CC[C@H](C)[C@@H]1NC(=O)[C@H](CC)N(C)C(=O)C[C@@H](C(=O)N(C)C)N(C)C(=O)[C@H](C2CCCC2)N(C)C(=O)C2(CCC2)N(C)C(=O)[C@@H]2CCCN2C(=O)[C@H](CCc2cc(F)c(C(F)(F)F)c(F)c2)NC(=O)CN(C)C(=O)[C@H](Cc2ccc(C)cc2)N2CC/C=C\C[C@@H](C2=O)N(C)C(=O)CN(C)C1=O [PP1782] | B (a compound having 3 or more and less than 10 is denoted as B) | A (a compound having 10 or more and less than 20 is denoted as A) |
| 6.2 nM | CC[C@H](C)[C@@H]1NC(=O)[C@H](C2CC2)N(C)C(=O)C[C@@H](C(=O)N(C)C)N(C)C(=O)[C@H](C2CCCC2)N(C)C(=O)C2(CCC2)N(C)C(=O)[C@@H]2C[C@@H](C)CN2C(=O)[C@H](CCc2cc(F)c(C(F)(F)F)c(F)c2)NC(=O)CN(C)C(=O)[C@H](Cc2ccc(C)cc2)N2CC/C=C\C[C@@H](C2=O)N(C)C(=O)CN(C)C1=O [PP1788] | B (a compound having 3 or more and less than 10 is denoted as B) | B (a compound having 3 or more and less than 10 is denoted as B) |
| 8.7 nM | CCC[C@H]1C(=O)N[C@@H]([C@@H](C)CC)C(=O)N(C)CC(=O)N(C)[C@H]2C/C=C\CCN(C2=O)[C@@H](Cc2ccc(C)cc2)C(=O)N(C)CC(=O)N[C@@H](CCc2cc(F)c(C(F)(F)F)c(F)c2)C(=O)N2CCC[C@H]2C(=O)N(C)C2(CCC2)C(=O)N(C)[C@@H](C2CCCC2)C(=O)N(C)[C@H](C(=O)N(C)C)CC(=O)N1C [PP1794] | B (a compound having 3 or more and less than 10 is denoted as B) | A (a compound having 10 or more and less than 20 is denoted as A) |
| 3 nM | CCO[C@@H]1C[C@H]2C(=O)N(C)C3(CCC3)C(=O)N(C)[C@@H](C3CCCC3)C(=O)N(C)[C@H](C(=O)N(C)C)CC(=O)N(C)[C@@H](CC3CC3)C(=O)N[C@@H]([C@@H](C)CC)C(=O)N(C)CC(=O)N(C)[C@H]3C/C=C\CCN(C3=O)[C@@H](Cc3ccc(C)cc3)C(=O)N(C)CC(=O)N[C@@H](CCc3cc(F)c(C(F)(F)F)c(F)c3)C(=O)N2C1 [PP1795] | B (a compound having 3 or more and less than 10 is denoted as B) | A (a compound having 10 or more and less than 20 is denoted as A) |
| 5.3 nM | CC[C@H](C)[C@@H]1NC(=O)[C@H](CC2CC2)N(C)C(=O)C[C@@H](C(=O)N(C)C)N(C)C(=O)[C@H](C2CCCC2)N(C)C(=O)C2(CCC2)N(C)C(=O)[C@@H]2CCCN2C(=O)[C@H](CCc2cc(F)c(C(F)(F)F)c(F)c2)NC(=O)CN(C)C(=O)[C@H](Cc2ccc(C)cc2)N2CC/C=C\C[C@@H](C2=O)N(C)C(=O)CN(C)C1=O [PP1796] | B (a compound having 3 or more and less than 10 is denoted as B) | A (a compound having 10 or more and less than 20 is denoted as A) |
| 6.5 nM | CC[C@H](C)[C@@H]1NC(=O)[C@H](CC2CC2)N(C)C(=O)C[C@@H](C(=O)N(C)C)N(C)C(=O)[C@H](C2CCCC2)N(C)C(=O)C2(CCC2)N(C)C(=O)[C@@H]2C[C@@H](C)CN2C(=O)[C@H](CCc2cc(F)c(C(F)(F)F)c(F)c2)NC(=O)CN(C)C(=O)[C@H](Cc2ccc(C)cc2)N2CC/C=C\C[C@@H](C2=O)N(C)C(=O)CN(C)C1=O [PP1800] | A (a compound having 10 or more and less than 20 is denoted as A) | A (a compound having 10 or more and less than 20 is denoted as A) |
| 18.4 nM | CC[C@H](C)[C@@H]1NC(=O)[C@H](CC(F)F)N(C)C(=O)C[C@@H](C(=O)N(C)C)N(C)C(=O)[C@H](C2CCCC2)N(C)C(=O)C2(CC(C)(C)C2)NC(=O)[C@@H]2C[C@@H](C)CN2C(=O)[C@H](CCc2ccc(C(F)(F)F)c(OC)c2)NC(=O)CN(C)C(=O)[C@H](Cc2ccc(C)cc2)N2CC/C=C\C[C@@H](C2=O)N(C)C(=O)CN(C)C1=O [PP1877] | – | – |
| 17.3 nM | CC[C@H](C)[C@@H]1NC(=O)[C@H](CC)N(C)C(=O)C[C@@H](C(=O)N(C)CC)N(C)C(=O)[C@H](C2CCCC2)N(C)C(=O)C2(CC(C)(C)C2)NC(=O)[C@@H]2C[C@@H](C)CN2C(=O)[C@H](CCc2cc(F)c(C(F)(F)F)c(F)c2)NC(=O)CN(C)C(=O)[C@H](Cc2ccc(C)cc2)N2CC/C=C\C[C@@H](C2=O)N(C)C(=O)CN(C)C1=O [PP1884] | – | – |
| 22.6 nM | CC[C@H](C)[C@@H]1NC(=O)[C@H](CC2CC2)N(C)C(=O)C[C@@H](C(=O)N(C)CC)N(C)C(=O)[C@H](C2CCCC2)N(C)C(=O)C2(CCC2)NC(=O)[C@@H]2C[C@H](C)CN2C(=O)[C@H](CCc2ccc(C(F)(F)F)c(OC)c2)NC(=O)CN(C)C(=O)[C@H](Cc2ccc(C)cc2)N2CC/C=C\C[C@@H](C2=O)N(C)C(=O)CN(C)C1=O [PP1897] | – | – |
| 39.7 nM | CCCN1C(=O)CN(C)C(=O)CN(C)C(=O)[C@H]([C@@H](C)CC)NC(=O)[C@H](CC(C)C)N(C)C(=O)C[C@@H](C(=O)N2CCOCC2)N(C)C(=O)[C@H](C2CCCC2)N(C)C(=O)C2(CCCC2)NC(=O)[C@H](C)NC(=O)[C@H](CCc2ccc(C(F)(F)F)c(Cl)c2)NC(=O)CN(C)C(=O)[C@@H]1Cc1ccc(C(F)(F)F)cc1 [PP1914] ([NMeL]I[Sar][Sar][NPrPhe(4-CF3)][Sar][hPhe(3-Cl-4-CF3)]A[Ac5c][NMeGly(cPent)][NMeD]-Morpholide; lactam N-11) | – | – |
| 15.7 nM | CCCN(C)C(=O)[C@@H]1CC(=O)N(C)[C@@H](COCC)C(=O)N[C@@H]([C@@H](C)CC)C(=O)N(C)CC(=O)N(C)[C@H]2C/C=C\CCN(C2=O)[C@@H](Cc2ccc(C(F)(F)F)cc2)C(=O)N(C)CC(=O)N[C@@H](CCc2cc(F)c(C(F)(F)F)c(F)c2)C(=O)N2C[C@@H](C)C[C@H]2C(=O)NC2(CCC2)C(=O)N(C)[C@@H](C2CCCC2)C(=O)N1C [PP2002] | – | – |
| 4.5 nM | CCO[C@@H]1C[C@H]2C(=O)NC3(CCC3)C(=O)N(C)[C@@H](C3CCCC3)C(=O)N(C)[C@H](C(=O)N(C)CC)CC(=O)N(C)[C@@H](C(C)C)C(=O)N[C@@H]([C@@H](C)CC)C(=O)N(C)CC(=O)N(C)[C@H]3C/C=C\CCN(C3=O)[C@@H](Cc3ccc(C(F)(F)F)cc3)C(=O)N(C)CC(=O)N[C@@H](CCc3ccc(C(F)(F)F)c(OC)c3)C(=O)N2C1 [PP2019] | – | – |
| 11.8 nM | CCCN(C)C(=O)[C@@H]1CC(=O)N(C)[C@@H](CCOC)C(=O)N[C@@H]([C@@H](C)CC)C(=O)N(C)CC(=O)N(C)[C@H]2C/C=C\CCN(C2=O)[C@@H](Cc2ccc(C(F)(F)F)cc2)C(=O)N(C)CC(=O)N[C@@H](CCc2cc(F)c(C(F)(F)F)c(F)c2)C(=O)N2C[C@H](OCC)C[C@H]2C(=O)NC2(CC(C)(C)C2)C(=O)N(C)[C@@H](C2CCCC2)C(=O)N1C [PP2033] | – | – |
